Target: human activated kallikrein enzyme (plasma kallikrein) (Homo sapiens (Human), UniProt P03952)
Experiment: Inhibition of human activated plasma kallikrein, fluorogenic peptide substrate assay, 500 pM enzyme format
Format: biochemical
Settings: 500 pM activated kallikrein enzyme, 300 uM Pro-Phe-Arg-7-amido-4-methylcoumarin substrate, 30 min preincubation, 10 min at RT; read-out: Primary Dose Response Assay: Average EC50
Procedure, shortened: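 Buffer 20 mM Tris pH 7.5, EDTA, NaCl, PEG-400, Triton X-100; 300 uM Pro-Phe-Arg-AMC; enzyme–inhibitor preincubation 30 min RT. Format one: 500 pM kallikrein, 10 min RT reaction; format two: 5 pM kallikrein, 18 h RT reaction. Fluorescence read at 460 nm (380 nm excitation).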

Sequence of human activated kallikrein enzyme (plasma kallikrein) (P03952 391-638): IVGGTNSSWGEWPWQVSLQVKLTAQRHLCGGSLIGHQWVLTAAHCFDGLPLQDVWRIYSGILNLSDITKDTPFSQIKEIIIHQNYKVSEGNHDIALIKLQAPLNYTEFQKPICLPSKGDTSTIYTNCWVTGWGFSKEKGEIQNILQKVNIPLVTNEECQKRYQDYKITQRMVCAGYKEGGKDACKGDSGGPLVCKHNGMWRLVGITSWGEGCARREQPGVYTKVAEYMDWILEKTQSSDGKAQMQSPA
Sequence of human activated kallikrein enzyme (plasma kallikrein) (P03952 20-390 partner): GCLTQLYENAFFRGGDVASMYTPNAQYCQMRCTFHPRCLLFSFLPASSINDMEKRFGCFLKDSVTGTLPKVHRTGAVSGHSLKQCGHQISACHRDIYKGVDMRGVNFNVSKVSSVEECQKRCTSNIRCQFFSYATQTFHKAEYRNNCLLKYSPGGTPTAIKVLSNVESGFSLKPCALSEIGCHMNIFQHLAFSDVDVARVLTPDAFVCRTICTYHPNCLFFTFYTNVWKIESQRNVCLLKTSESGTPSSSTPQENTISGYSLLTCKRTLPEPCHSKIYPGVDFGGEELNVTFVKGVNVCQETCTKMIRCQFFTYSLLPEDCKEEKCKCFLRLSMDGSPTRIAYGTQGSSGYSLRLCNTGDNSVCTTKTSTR

Row | SMILES | EC50
1 | O=C(NCc1ncn2ccc(Cl)c(F)c12)c1cn(Cc2cn3cc(C4CC4)cc(CC4(C(=O)O)CCCC4)c3n2)nn1 [Example I-221b, 1-((2-((4-(((7-chloro-8-fluoroimidazo[1,5-a]pyridin-1-yl)methyl)carbamoyl)-1H-1,2,3-triazol-1-yl)methyl)-6-cyclopropylimidazo[1,2-a]pyridin-8-yl)methyl)cyclopentane-1-carboxylic acid] | < 1 nM
2 | CCOc1c(Cl)ccn2cnc(CNC(=O)c3cn(Cc4cn5cc(C6CC6)cc(CC6(C(=O)O)CCCC6)c5n4)nn3)c12 [Example I-221c, 1-((2-((4-(((7-chloro-8-ethoxyimidazo[1,5-a]pyridin-1-yl)methyl)carbamoyl)-1H-1,2,3-triazol-1-yl)methyl)-6-cyclopropylimidazo[1,2-a]pyridin-8-yl)methyl)cyclopentane-1-carboxylic acid] | 10 to 100 nM
3 | O=C(NCc1ncn2ccc(Cl)c(F)c12)c1cn(Cc2cc3ccc(Cl)cc3[nH]2)nn1 [Example I-222, 1-((6-chloro-1H-indol-2-yl)methyl)-N-((7-chloro-8-fluoroimidazo[1,5-a]pyridin-1-yl)methyl)-1H-1,2,3-triazole-4-carboxamide] | 100 to 2000 nM
4 | CCOC(=O)C(C)(C)Oc1cc(C2CC2)cn2cc(Cn3cc(C(=O)NCc4ncn5ccc(Cl)c(F)c45)nn3)nc12 [Example I-223, ethyl 2-((2-((4-(((7-chloro-8-fluoroimidazo[1,5-a]pyridin-1-yl)methyl)carbamoyl)-1H-1,2,3-triazol-1-yl)methyl)-6-cyclopropylimidazo[1,2-a]pyridin-8-yl)oxy)-2-methylpropanoate] | < 1 nM
5 | COC(=O)C(F)Cc1cc(C2CC2)cn2cc(Cn3cc(C(=O)NCc4ncn5ccc(Cl)c(F)c45)nn3)nc12 (stereo not shown) [Example I-224a, methyl 3-(2-((4-(((7-chloro-8-fluoroimidazo[1,5-a]pyridin-1-yl)methyl)carbamoyl)-1H-1,2,3-triazol-1-yl)methyl)-6-cyclopropylimidazo[1,2-a]pyridin-8-yl)-2-fluoropropanoate] | < 1 nM
6 | O=C(NCc1ncn2ccc(Cl)c(F)c12)c1cn(Cc2cn3cc(C4CC4)cc(-c4cnoc4)c3n2)nn1 [Example I-225, N-((7-chloro-8-fluoroimidazo[1,5-a]pyridin-1-yl)methyl)-1-((6-cyclopropyl-8-(isoxazol-4-yl)imidazo[1,2-a]pyridin-2-yl)methyl)-1H-1,2,3-triazole-4-carboxamide] | < 1 nM
7 | O=C(O)c1cn(-c2cc(C3CC3)cn3cc(Cn4cc(C(=O)NCc5ncn6ccc(Cl)c(F)c56)nn4)nc23)cn1 [Example I-226, 1-(2-((4-((7-chloro-8-fluoroimidazo[1,5-a]pyridin-1-yl)methylcarbamoyl)-1H-1,2,3-triazol-1-yl)methyl)-6-cyclopropylimidazo[1,2-a]pyridin-8-yl)-1H-imidazole-4-carboxylic acid] | < 1 nM
8 | CCOC(=O)CC(c1cn2cc(C3CC3)ccc2n1)n1cc(C(=O)NCc2ncn3ccc(Cl)c(F)c23)nn1 (stereo not shown) [Example I-227a, ethyl 3-(4-(((7-chloro-8-fluoroimidazo[1,5-a]pyridin-1-yl)methyl)carbamoyl)-1H-1,2,3-triazol-1-yl)-3-(6-cyclopropylimidazo[1,2-a]pyridin-2-yl)propanoate] | 10 to 100 nM
9 | O=C(O)CC(c1cn2cc(C3CC3)ccc2n1)n1cc(C(=O)NCc2ncn3ccc(Cl)c(F)c23)nn1 (stereo not shown) [Example I-227b, 3-(4-(((7-chloro-8-fluoroimidazo[1,5-a]pyridin-1-yl)methyl)carbamoyl)-1H-1,2,3-triazol-1-yl)-3-(6-cyclopropylimidazo[1,2-a]pyridin-2-yl)propanoic acid] | 100 to 2000 nM
10 | C#Cc1cc(C2CC2)cn2cc(Cn3cc(C(=O)NCc4ncn5ccc(Cl)c(F)c45)nn3)nc12 [Example I-228, N-((7-chloro-8-fluoroimidazo[1,5-a]pyridin-1-yl)methyl)-1-((6-cyclopropyl-8-ethynylimidazo[1,2-a]pyridin-2-yl)methyl)-1H-1,2,3-triazole-4-carboxamide] | < 1 nM
11 | O=C(NCc1ncn2ccc(Cl)c(F)c12)c1cn(Cc2cc3ccc(C4CC4)cc3s2)nn1 [Example I-229, N-((7-chloro-8-fluoroimidazo[1,5-a]pyridin-1-yl)methyl)-1-((6-cyclopropylbenzo[b]thiophen-2-yl)methyl)-1H-1,2,3-triazole-4-carboxamide] | 10 to 100 nM
12 | O=C(O)c1cnn(-c2cc(C3CC3)cn3cc(Cn4cc(C(=O)NCc5ncn6ccc(Cl)c(F)c56)nn4)nc23)c1 [Example I-230, 1-(2-((4-(((7-chloro-8-fluoroimidazo[1,5-a]pyridin-1-yl)methyl)carbamoyl)-1H-1,2,3-triazol-1-yl)methyl)-6-cyclopropylimidazo[1,2-a]pyridin-8-yl)-1H-pyrazole-4-carboxylic acid] | < 1 nM

The next lines start with the values.

Row | EC50 | SMILES
13 | < 1 nM | O=C(NCc1ncn2ccc(Cl)c(F)c12)c1cn(Cc2cc3cc(C4CC4)cc(C(F)(F)F)n3n2)nn1 [Example I-231, N-((7-chloro-8-fluoroimidazo[1,5-a]pyridin-1-yl)methyl)-1-((5-cyclopropyl-7-(trifluoromethyl)pyrazolo[1,5-a]pyridin-2-yl)methyl)-1H-1,2,3-triazole-4-carboxamide]
14 | 10 to 100 nM | O=C(NCc1ncn2ccc(Cl)c(F)c12)c1cn(Cc2cc3cc(C4CC4)ccc3[nH]2)nn1 [Example I-232, N-((7-chloro-8-fluoroimidazo[1,5-a]pyridin-1-yl)methyl)-1-((5-cyclopropyl-1H-indol-2-yl)methyl)-1H-1,2,3-triazole-4-carboxamide]
15 | 1 to 10 nM | Cn1c(Cn2cc(C(=O)NCc3ncn4ccc(Cl)c(F)c34)nn2)cc2cc(C3CC3)ccc21 [Example I-233, N-((7-chloro-8-fluoroimidazo[1,5-a]pyridin-1-yl)methyl)-1-((5-cyclopropyl-1-methyl-1H-indol-2-yl)methyl)-1H-1,2,3-triazole-4-carboxamide]
16 | 10 to 100 nM | O=C(NCc1ncn2ccc(Cl)c(F)c12)c1cn(Cc2cc3ccc(Cl)cc3s2)nn1 [Example I-234, N-((7-chloro-8-fluoroimidazo[1,5-a]pyridin-1-yl)methyl)-1-((6-chlorobenzo[b]thiophen-2-yl)methyl)-1H-1,2,3-triazole-4-carboxamide]
17 | 100 to 2000 nM | O=C(NCc1ncn2ccc(Cl)c(F)c12)c1cn(Cc2cc3ccc(C4CC4)cc3[nH]2)nn1 [Example I-235, N-((7-chloro-8-fluoroimidazo[1,5-a]pyridin-1-yl)methyl)-1-((6-cyclopropyl-1H-indol-2-yl)methyl)-1H-1,2,3-triazole-4-carboxamide]
18 | 10 to 100 nM | O=C(NCc1ncn2ccc(Cl)c(F)c12)c1cn(Cc2nc3cc(C4CC4)ccc3[nH]2)nn1 [Example I-236, N-((7-chloro-8-fluoroimidazo[1,5-a]pyridin-1-yl)methyl)-1-((5-cyclopropyl-1H-benzo[d]imidazol-2-yl)methyl)-1H-1,2,3-triazole-4-carboxamide]
19 | < 1 nM | CC(C)(C#N)Cc1cc(C2CC2)cn2cc(Cn3cc(C(=O)NCc4ncn5ccc(Cl)c(F)c45)cn3)nc12 [Example I-237, N-((7-chloro-8-fluoroimidazo[1,5-a]pyridin-1-yl)methyl)-1-((8-(2-cyano-2-methylpropyl)-6-cyclopropylimidazo[1,2-a]pyridin-2-yl)methyl)-1H-pyrazole-4-carboxamide]
